Laboratory results published in ChEMBL document CHEMBL3044600 (Biochem Syst Ecol, 2008).
Values after ≈ are worked out from the molar mass of the structure shown. Active and inactive are the calls of the source. No cut-off for these calls is given here.

Tested on: Myzus persicae
Test: Antifeedant activity against Myzus persicae (green peach aphid) adults fed on compound treated […] annuum leaves assessed as feeding level at 50 ug/cm2 (reference value: 43 to 70%)
Format: functional
Details: not given

SMILES	Activity [%]
C[C@H]1C(=O)O[C@@H]2CCN3CC=C(COC(=O)[C@](C)(O)[C@]1(C)O)[C@H]23 [MONOCROTALINE]	49
C/C=C1/C[C@@H](C)[C@@](C)(O)C(=O)OCC2=CCN3CC[C@@H](OC1=O)[C@@H]23 [SENECIONINE]	40
C=C1C/C(=C/C)C(=O)O[C@@H]2CCN3CC=C(COC(=O)[C@]1(C)O)[C@H]23 [SENECIPHYLLINE]	50
C/C=C1\C[C@@H](C)[C@@](C)(O)C(=O)OC/C2=C/CN(C)CC[C@@H](OC1=O)C2=O [SENKIRKINE]	35
C=C1C/C(=C\C)C(=O)O[C@@H]2CCN3CC=C(COC(=O)[C@]1(C)O)[C@H]23 [SPARTIOIDINE]	35

Tested on: Spodoptera littoralis
Test: Antifeedant activity against Spodoptera littoralis L6 larvae assessed as food consumption level orally dosed with 40 ug after 72 hr relative to untreated control
Format: functional
Details: not given

SMILES	Activity [%]
C=C1C(=O)O[C@@H]2CCN3CC=C(COC(=O)[C@](C)(O)[C@H](C)[C@H]1C)[C@H]23	98
C[C@H]1C(=O)O[C@@H]2CCN3CC=C(COC(=O)[C@](C)(O)[C@]1(C)O)[C@H]23 [MONOCROTALINE]	98
C/C=C1/C[C@@H](C)[C@@](C)(O)C(=O)OCC2=CCN3CC[C@@H](OC1=O)[C@@H]23 [SENECIONINE]	84
C=C1C/C(=C/C)C(=O)O[C@@H]2CCN3CC=C(COC(=O)[C@]1(C)O)[C@H]23 [SENECIPHYLLINE]	82
C/C=C1\C[C@@H](C)[C@@](C)(O)C(=O)OC/C2=C/CN(C)CC[C@@H](OC1=O)C2=O [SENKIRKINE]	105
C=C1C/C(=C\C)C(=O)O[C@@H]2CCN3CC=C(COC(=O)[C@]1(C)O)[C@H]23 [SPARTIOIDINE]	97

Tested on: Lactuca sativa
Test: Phytotoxicity against Lactuca sativa var. Carrascoy (lettuce) assessed as inhibition of radicle length at 50 ug/cm2 after 24 to 144 hr
Format: functional
Details: not given

SMILES	inhibition at 50 µg/cm2 [%]
C=C1C(=O)O[C@@H]2CCN3CC=C(COC(=O)[C@](C)(O)[C@H](C)[C@H]1C)[C@H]23	< 50
C[C@H]1C(=O)O[C@@H]2CCN3CC=C(COC(=O)[C@](C)(O)[C@]1(C)O)[C@H]23 [MONOCROTALINE]	< 50
C/C=C1/C[C@@H](C)[C@@](C)(O)C(=O)OCC2=CCN3CC[C@@H](OC1=O)[C@@H]23 [SENECIONINE]	< 50
C=C1C/C(=C/C)C(=O)O[C@@H]2CCN3CC=C(COC(=O)[C@]1(C)O)[C@H]23 [SENECIPHYLLINE]	< 50
C/C=C1\C[C@@H](C)[C@@](C)(O)C(=O)OC/C2=C/CN(C)CC[C@@H](OC1=O)C2=O [SENKIRKINE]	< 50
C=C1C/C(=C\C)C(=O)O[C@@H]2CCN3CC=C(COC(=O)[C@]1(C)O)[C@H]23 [SPARTIOIDINE]	< 50

Tested on: Lactuca sativa
Test: Phytotoxicity against Lactuca sativa var. Carrascoy (lettuce) assessed as inhibition of seed germination at 50 ug/cm2 after 96 hr
Format: functional, organism-based
Details: not given

SMILES	inhibition
C[C@H]1C(=O)O[C@@H]2CCN3CC=C(COC(=O)[C@](C)(O)[C@]1(C)O)[C@H]23 [MONOCROTALINE]	Active
C/C=C1\C[C@@H](C)[C@@](C)(O)C(=O)OC/C2=C/CN(C)CC[C@@H](OC1=O)C2=O [SENKIRKINE]	Active

Tested on: Leptinotarsa decemlineata
Test: Antifeedant activity against Leptinotarsa decemlineata adults fed on compound treated Capsicum annuum leaves assessed as inhibition of feeding
Format: functional, organism-based
Details: not given

SMILES	EC50 [microg/cm2]
C=C1C(=O)O[C@@H]2CCN3CC=C(COC(=O)[C@](C)(O)[C@H](C)[C@H]1C)[C@H]23	> 50
C[C@H]1C(=O)O[C@@H]2CCN3CC=C(COC(=O)[C@](C)(O)[C@]1(C)O)[C@H]23 [MONOCROTALINE]	> 50
C/C=C1/C[C@@H](C)[C@@](C)(O)C(=O)OCC2=CCN3CC[C@@H](OC1=O)[C@@H]23 [SENECIONINE]	1.3
C=C1C/C(=C/C)C(=O)O[C@@H]2CCN3CC=C(COC(=O)[C@]1(C)O)[C@H]23 [SENECIPHYLLINE]	1.7
C/C=C1\C[C@@H](C)[C@@](C)(O)C(=O)OC/C2=C/CN(C)CC[C@@H](OC1=O)C2=O [SENKIRKINE]	> 50
C=C1C/C(=C\C)C(=O)O[C@@H]2CCN3CC=C(COC(=O)[C@]1(C)O)[C@H]23 [SPARTIOIDINE]	4.8

Tested on: Lactuca sativa
Test: Phytotoxicity against Lactuca sativa var. Carrascoy (lettuce) assessed as inhibition of seed germination at 50 ug/cm2 after 24 hr
Format: functional, organism-based
Details: not given

SMILES	inhibition
C/C=C1\C[C@@H](C)[C@](O)(CO)C(=O)OCC2=CCN3CC[C@@H](OC1=O)[C@@H]23 (stereo in doubt; 7)	Active
C/C=C1\C[C@@H](C)[C@](O)(CO)C(=O)OCC2=CCN3CC[C@@H](OC1=O)[C@@H]23 (stereo in doubt; 8)	Active
C[C@H]1C(=O)O[C@@H]2CCN3CC=C(COC(=O)[C@](C)(O)[C@]1(C)O)[C@H]23 [MONOCROTALINE]	Active
C/C=C1\C[C@@H](C)[C@@](C)(O)C(=O)OC/C2=C/CN(C)CC[C@@H](OC1=O)C2=O [SENKIRKINE]	Active

Tested on: not listed separately
Test: Toxicity against Spodoptera frugiperda (fall armyworm) Sf9 cells by MTT assay
Format: cell-based
Details: not given

SMILES	EC50 [µg/mL]
C=C1C(=O)O[C@@H]2CCN3CC=C(COC(=O)[C@](C)(O)[C@H](C)[C@H]1C)[C@H]23	> 100
C[C@H]1C(=O)O[C@@H]2CCN3CC=C(COC(=O)[C@](C)(O)[C@]1(C)O)[C@H]23 [MONOCROTALINE]	> 100
C/C=C1/C[C@@H](C)[C@@](C)(O)C(=O)OCC2=CCN3CC[C@@H](OC1=O)[C@@H]23 [SENECIONINE]	> 100
C=C1C/C(=C/C)C(=O)O[C@@H]2CCN3CC=C(COC(=O)[C@]1(C)O)[C@H]23 [SENECIPHYLLINE]	> 100
C=C1C/C(=C\C)C(=O)O[C@@H]2CCN3CC=C(COC(=O)[C@]1(C)O)[C@H]23 [SPARTIOIDINE]	> 100

Tested on: Spodoptera littoralis
Test: Antifeedant activity against Spodoptera littoralis L6 larvae assessed as biomass gain orally dosed with 40 ug after 72 hr relative to untreated control
Format: functional
Details: not given

SMILES	Activity [%]
C=C1C(=O)O[C@@H]2CCN3CC=C(COC(=O)[C@](C)(O)[C@H](C)[C@H]1C)[C@H]23	90
C[C@H]1C(=O)O[C@@H]2CCN3CC=C(COC(=O)[C@](C)(O)[C@]1(C)O)[C@H]23 [MONOCROTALINE]	47
C/C=C1/C[C@@H](C)[C@@](C)(O)C(=O)OCC2=CCN3CC[C@@H](OC1=O)[C@@H]23 [SENECIONINE]	84
C=C1C/C(=C/C)C(=O)O[C@@H]2CCN3CC=C(COC(=O)[C@]1(C)O)[C@H]23 [SENECIPHYLLINE]	87
C/C=C1\C[C@@H](C)[C@@](C)(O)C(=O)OC/C2=C/CN(C)CC[C@@H](OC1=O)C2=O [SENKIRKINE]	116
C=C1C/C(=C\C)C(=O)O[C@@H]2CCN3CC=C(COC(=O)[C@]1(C)O)[C@H]23 [SPARTIOIDINE]	90

Tested on: Spodoptera littoralis
Test: Antifeedant activity against Spodoptera littoralis sixth-instar larvae fed on compound treated Solanum tuberosum leaves assessed as inhibition of feeding
Format: functional, organism-based
Details: not given

SMILES	EC50 [microg/cm2]
C=C1C(=O)O[C@@H]2CCN3CC=C(COC(=O)[C@](C)(O)[C@H](C)[C@H]1C)[C@H]23	> 50
C[C@H]1C(=O)O[C@@H]2CCN3CC=C(COC(=O)[C@](C)(O)[C@]1(C)O)[C@H]23 [MONOCROTALINE]	> 50
C/C=C1/C[C@@H](C)[C@@](C)(O)C(=O)OCC2=CCN3CC[C@@H](OC1=O)[C@@H]23 [SENECIONINE]	> 50
C=C1C/C(=C/C)C(=O)O[C@@H]2CCN3CC=C(COC(=O)[C@]1(C)O)[C@H]23 [SENECIPHYLLINE]	50
C/C=C1\C[C@@H](C)[C@@](C)(O)C(=O)OC/C2=C/CN(C)CC[C@@H](OC1=O)C2=O [SENKIRKINE]	> 50
C=C1C/C(=C\C)C(=O)O[C@@H]2CCN3CC=C(COC(=O)[C@]1(C)O)[C@H]23 [SPARTIOIDINE]	0.2

Tested on: not listed separately
Test: Toxicity against Cricetulus griseus CHO (Chinese hamster ovary) cell by MTT assay
Format: cell-based
Details: CHO cells

SMILES	EC50 [µg/mL]
C=C1C(=O)O[C@@H]2CCN3CC=C(COC(=O)[C@](C)(O)[C@H](C)[C@H]1C)[C@H]23	13.2 (≈ 39.4 µM)
C/C=C1/C[C@@H](C)[C@](O)(CO)C(=O)OCC2=CCN3CC[C@@H](OC1=O)[C@@H]23 (stereo in doubt; 7) [RETRORSINE]	> 100
C[C@H]1C(=O)O[C@@H]2CCN3CC=C(COC(=O)[C@](C)(O)[C@]1(C)O)[C@H]23 [MONOCROTALINE]	> 100
C/C=C1/C[C@@H](C)[C@@](C)(O)C(=O)OCC2=CCN3CC[C@@H](OC1=O)[C@@H]23 [SENECIONINE]	> 100
C=C1C/C(=C/C)C(=O)O[C@@H]2CCN3CC=C(COC(=O)[C@]1(C)O)[C@H]23 [SENECIPHYLLINE]	> 100
C=C1C/C(=C\C)C(=O)O[C@@H]2CCN3CC=C(COC(=O)[C@]1(C)O)[C@H]23 [SPARTIOIDINE]	> 100

Tested on: Lactuca sativa
Test: Phytotoxicity against Lactuca sativa var. Carrascoy (lettuce) assessed as inhibition of seed germination at 50 ug/cm2 up to 144 hr
Format: functional, organism-based
Details: not given

SMILES	inhibition
C[C@H]1C(=O)O[C@@H]2CCN3CC=C(COC(=O)[C@](C)(O)[C@]1(C)O)[C@H]23 [MONOCROTALINE]	Active

Tested on: Lactuca sativa
Test: Phytotoxicity against Lactuca sativa var. Carrascoy (lettuce) assessed as inhibition of seed germination at 50 ug/cm2 after 48 hr
Format: functional, organism-based
Details: not given

SMILES	inhibition
C[C@H]1C(=O)O[C@@H]2CCN3CC=C(COC(=O)[C@](C)(O)[C@]1(C)O)[C@H]23 [MONOCROTALINE]	Active
C/C=C1\C[C@@H](C)[C@@](C)(O)C(=O)OC/C2=C/CN(C)CC[C@@H](OC1=O)C2=O [SENKIRKINE]	Active

Tested on: Rhopalosiphum padi
Test: Antifeedant activity against Rhopalosiphum padi adults fed on compound treated Hordeum vulgare annuum leaves assessed as feeding level at 50 ug/cm2 (reference value: 47 to 64%)
Format: functional
Details: not given

SMILES	Activity [%]
C[C@H]1C(=O)O[C@@H]2CCN3CC=C(COC(=O)[C@](C)(O)[C@]1(C)O)[C@H]23 [MONOCROTALINE]	37
C/C=C1/C[C@@H](C)[C@@](C)(O)C(=O)OCC2=CCN3CC[C@@H](OC1=O)[C@@H]23 [SENECIONINE]	40
C=C1C/C(=C/C)C(=O)O[C@@H]2CCN3CC=C(COC(=O)[C@]1(C)O)[C@H]23 [SENECIPHYLLINE]	42
C/C=C1\C[C@@H](C)[C@@](C)(O)C(=O)OC/C2=C/CN(C)CC[C@@H](OC1=O)C2=O [SENKIRKINE]	53
C=C1C/C(=C\C)C(=O)O[C@@H]2CCN3CC=C(COC(=O)[C@]1(C)O)[C@H]23 [SPARTIOIDINE]	42

Tested on: Lactuca sativa
Test: Phytotoxicity against Lactuca sativa var. Carrascoy (lettuce) assessed as inhibition of seed germination at 50 ug/cm2 after 72 hr
Format: functional, organism-based
Details: not given

SMILES	inhibition
C[C@H]1C(=O)O[C@@H]2CCN3CC=C(COC(=O)[C@](C)(O)[C@]1(C)O)[C@H]23 [MONOCROTALINE]	Active
C/C=C1\C[C@@H](C)[C@@](C)(O)C(=O)OC/C2=C/CN(C)CC[C@@H](OC1=O)C2=O [SENKIRKINE]	Active
